Assay results as given in PMC9202147, “In vitro anti-HIV and cytotoxic effects of pure compounds isolated from Croton macrostachyus Hochst. Ex Delile” (BMC Complementary Medicine and Therapies, 2022).
In brackets after ≈: the same amount, converted by molar mass. Where two headings read alike, the source gives them in different places.

Assays:
[1] = tested on: HIV-1IIIB virus; assay: Anti-HIV activity: inhibition of HIV-1-induced cytopathic effect in MT-4 cells, MTT colorimetric assay; format: cell-based; settings: for SI (selective index): ratio of CC50 to EC50, MT-4 cells; for Emax: read-out: EmaxAV (maximum antiviral effect %, inhibition of virus-induced CPE)
Protocol: The effects of the test compounds in preventing cytopathic effects that occur because of HIV-1 replication were evaluated by MTT colorimetric assay. MT-4 cells suspended at 1 X 10^8 cells/ml were infected with 640 μL of HIV-1IIIB virus at 1.26 X10^8 TCID50/ml. After infection, 200 μl HIV-infected MT-4 cells (1 X10^5 cells/well) in growth media were added to each well. The plates were preincubated for 24 h at 37 °C to allow stabilization. Then, 50 μL of the test compounds (at a concentration of 4 mg/ml) were added to the first column of the well. With a multichannel pipette, 50 μL was transferred (in triplicate) from the wells labeled 1 to wells labeled 2. Such transfers were continued (serial dilution), moving from left to right, changing tips prior to mixing contents of the next column of wells. Finally, 50 μL was discarded from the wells in column 12. Different concentrations ([…]) of test compounds were prepared through serial dilution. Each dilution was tested in triplicates. The microtiter plates were incubated at 37 °C in a 5% CO2 incubator for 5 days. […] After 5 days of incubation, cell viability was determined by the MTT assay described. All compounds were assayed in triplicate.

[2] = tested on: MT-4 cells; assay: in vitro; settings: 5 days, MTT, mean ± S.E.M (n = 3); for MNTC (maximum nontoxic concentration): concentration with cell viability above 80% (CC20)
Protocol: (§1) A cytotoxicity test was conducted to evaluate the safety of the plant extracts by measuring cell death caused by the plant extracts. The assay was conducted using an MTT colorimetric assay. The MTT assay was based on the reduction of the yellow-colored tetrazolium salt MTT 3-(4,5-dimethylthiazol-2-yl)-2,5-diphenyltetrazolium bromide) by NAD(P)H-dependent cellular oxidoreductase enzymes to an insoluble dark-blue colored formazan that can be measured spectrophotometrically. Formazan production indicates the number of viable cells; therefore, an increase or decrease in cellular viability results in a change in the amount of formazan formed, which indicates the degree of cellular cytotoxicity (CC50) caused by the plant extract. MTT (3-(4,5-dimethylthiazol-2-yl)-2,5-diphenyl tetrazolium bromide) was dissolved in PBS to obtain a final concentration of 5 mg/ml and filtered to sterilize and remove insoluble residue. The assay was carried out in 96-well, flat-bottomed microtiter plates. To each well, 200 μl of MT-4 cells (1 × 10^5 cells) in growth media was added. The plates were preincubated for 24 h at 37 °C to allow stabilization. Then, 50 μL of the test compounds (at a concentration of 4 mg/ml) were added to the first column of the well. With a multichannel pipette, 50 μL was transferred (in triplicate) from the wells labeled 1 to wells labeled 2, and such transfers were continued (serial dilution), moving from left to right, changing tips prior to mixing contents of the next column of wells. Finally, 50 μL was discarded from the wells in column 12. […] Each dilution was tested in triplicates. The negative control (NC) wells contained 50 μl of MT-4 cells in 0.5% DMSO [52]. […] A 96-well microtiter plate containing the test compounds and positive and negative controls was incubated at 37 °C in a humidified atmosphere of 5% CO2 for 5 days. After incubation, 20 μl of MTT reagent (5 mg/ml MTT in phosphate-buffered saline) was added to each test well and control well. The plate was further incubated at 37 °C in a CO2 incubator for 4 hours. After 4 hours of incubation, 100 μl of DMSO was added to dissolve the dark-blue formazan crystals from surviving cells. After the formazan crystals were dissolved completely, the resulting optical density (OD) readings were measured relative to the controls on an ELISA plate reader at 570 nm with a reference wavelength of 620 nm. For each extract and pure compound tested, 3 triplicate determinations were performed. […] The concentration that determined cell viability above 80% (CC20) was chosen as the maximum non-toxic concentration (MNTC).

[3] = in vitro; settings: human, MT-4 cells
Protocol: as §1

[4] = tested on: HIV; design: method as in ref 61 (Chaniad et al); settings: ref 61 (Chaniad et al); read-out: IC50 against HIV; cited from earlier work
[5] = target: HIV-1 RT-associated RNase H function; design: method as in ref 62 (Esposito et al); settings: ref 62 (Esposito et al); cited from earlier work
[6] = HIV-1IIIB-infected MT-4 cells, 5 days, MTT, mean ± S.E.M (n = 3)
[7] = Human immunodeficiency virus 1, MT4, 120 h, read-out: IC50 (50% antiviral effect concentration), HIV-1IIIB-infected MT-4 cells, 5 days, MTT, mean ± S.E.M (n = 3)
[8] = Human immunodeficiency virus 1, MT4, 120 h, read-out: IC50 (50% antiviral effect concentration)
[9] = CC50 (50% cytotoxic concentration), 5 days, MTT, mean ± S.E.M (n = 3)
[10] = Human immunodeficiency virus 1, MT4, 120 h, HIV-1IIIB-infected MT-4 cells, 5 days, MTT, mean ± S.E.M (n = 3)

Row | Compound | EmaxAV (maximum antiviral effect %, inhibition of virus-induced CPE) [1, 6] [%] | IC50 [1, 7] [µg/mL] | SI (selective index) [1] | MNTC (maximum nontoxic concentration) [2] [µg/mL] | CC50 (50% cytotoxic concentration) [2] [µg/mL] | EmaxC (maximum cytotoxic effect %) [2] [%] | Emax ([1]; Human immunodeficiency virus 1, MT4, 120 h) [%] | IC50 [1, 8] [µg/mL] | CC50 at 5 days [3, 9] [µg/mL] | Emax [1, 10] [%] | IC50 ([1]; Human immunodeficiency virus 1, MT4, as stated in abstract/conclusions, read-out: anti-HIV-1 inhibition IC50) [nM] | CC50 at 5 days [3] [µg/mL] | IC50 ([1]; Human immunodeficiency virus 1, MT4, read-out: anti-HIV-1 inhibition IC50) [nM] | IC50 ([1]; Human immunodeficiency virus 1, MT4, as stated in abstract, read-out: anti-HIV-1 inhibition IC50) [µg/mL] | IC50 [4] [nM] | IC50, HIV-1 RT-associated RNase H function [5] [nM]
1 | Cc1ccnc2c1NC(=O)c1cccnc1N2C1CC1 [NVP, Nevirapine, reference compound] | 72.53 ± 0.47 | 0.24 ± 0.09 | 3.5 | 0.57 ± 0.0 | 0.82 ± 0.0 (≈ 3.08 µM) | 39.13 ± 0.65 | – | – | – | – | – | – | – | – | – | –
2 | CC[C@H](/C=C/[C@@H](C)[C@H]1CC[C@H]2[C@@H]3CC=C4C[C@@H](O)CC[C@]4(C)[C@H]3CC[C@]12C)C(C)C [Compound 7, stigmasterol] | – | – | 86.5 | 4.70 ± 3.43 | – | 43.71 ± 2.02 | 76.8 ± 23.2 | 0.14 ± 0.04 | 12.4 ± 10.9 (≈ 30 µM) | – | – | – | – | – | – | –
3 | Nc1nc(NC2CC2)c2ncn([C@H]3C=C[C@@H](CO)C3)c2n1 [ABC, Abacavir, reference compound] | 58.67 ± 0.43 | 0.05 ± 0.031 | 5.0 | 0.18 ± 0.03 | 0.26 ± 0.00 (≈ 0.908 µM) | 17.83 ± 0.57 | – | – | – | – | – | – | – | – | – | –
4 | C=C(C)[C@@H]1CC[C@]2(C)CC[C@]3(C)[C@H](CC[C@@H]4[C@@]5(C)CCC(=O)C(C)(C)[C@@H]5CC[C@]43C)[C@@H]12 [Compound 2, lupenone] | – | 0.002 ± 0.001 | 14,084.0 | 14.17 ± 0.94 | 28.83 ± 0.54 (≈ 67.9 µM) | 38.53 ± 0.69 | – | – | 32.5 ± 0.7 (≈ 76.4 µM) | 64.74 ± 0.52 | 4.7 | – | – | – | – | –
5 | COc1ccccc1COC(=O)c1ccccc1 [Compound 1, 2-methoxy benzyl benzoate] | – | 0.25 ± 0.02 | 0.0073 | – | – | 39.1 ± 2.22 | – | – | – | 53.2 ± 3.35 | – | 0.001 (≈ 0.00413 µM) | – | – | – | –
6 | Cc1cn([C@H]2C[C@H](N=[N+]=[N-])[C@@H](CO)O2)c(=O)[nH]c1=O [AZT, Zidovudine, reference compound] | 83.5 ± 0.57 | – | – | – | – | – | – | – | – | – | – | – | – | – | – | –
7 | C=C(C)[C@@H]1CC[C@]2(CO)CC[C@]3(C)[C@H](CC[C@@H]4[C@@]5(C)CC[C@H](O)C(C)(C)[C@@H]5CC[C@]43C)[C@@H]12 [Compound 4, betulin] | – | 0.002 ± 0.04 | 15,551.2 | 16.54 ± 0.35 | – | 55.13 ± 0.15 | – | – | 31.7 ± 0.55 (≈ 71.7 µM) | 76 | – | – | 4.5 | 4.5 | 17700 ± 600 | –
8 | C[C@H](Cn1cnc2c(N)ncnc21)OCP(=O)(O)O [TDF, Tenofovir, reference compound] | 80.55 ± 0.46 | – | – | 4.92 ± 0.71 | 6.73 ± 0.24 (≈ 23.4 µM) | 13.17 ± 0.43 | – | 0.04 ± 0.01 | – | – | – | – | – | – | – | –
9 | C=C(C)[C@@H]1CC[C@]2(C)CC[C@]3(C)[C@H](CC[C@@H]4[C@@]5(C)CC[C@H](O)C(C)(C)[C@@H]5CC[C@]43C)[C@@H]12 [Compound 5, lupeol] | – | 0.047 ± 0.02 | 3048.2 | 75.75 ± 0.74 | – | 70.28 ± 0.75 | – | – | 141.8 ± 0.7 (≈ 332 µM) | 77.01 ± 0.38 | – | – | – | – | – | 11600
